Assay results from ChEMBL document CHEMBL1150533, “Inhibitors of the adenovirus type 2 proteinase based on substrate-like tetrapeptide nitriles” (Bioorg Med Chem Lett, 1995).
Peptide text beside a SMILES is read from it. * marks the point of attachment. Cbz = O=C(OCc1ccccc1)*; Boc = CC(C)(C)OC(=O)*; N(Me)OMe = CON(C)*; OtBu = CC(C)(C)O*; NMeEt = CCN(C)*

What was measured:
Format in all cases: functional
[1] = test system: Human adenovirus 2; assay: Compound was tested for inhibition of Adenovirus type 2 proteinase; details: Human mastadenovirus C
[2] = test system: Human adenovirus 2; assay: Inhibitory activity against Adenovirus type 2 proteinase; parameters: concentration or dose not given beside the values
[3] = test system: Human adenovirus 2; assay: Compound was tested for noncompetitive inhibition of Adenovirus type 2 proteinase
[4] = test system: Human adenovirus 2; assay: Compound was tested for inhibition of Adenovirus type 2 proteinase; showed no inhibitory activity; parameters: concentration or dose not given beside the values
[5] = test system: Human adenovirus 2; assay: Compound was tested for inhibition of Adenovirus type 2 proteinase; Not very soluble and inactive at maximum soluble concentration
[6] = test system: Human adenovirus 2; assay: Inhibitory activity against Adenovirus type 2 proteinase; showed no inhibitory activity

| Compound | Inhibition [2] [%] | Inhibition [4] [%] | other results |
| --- | --- | --- | --- |
| CC(C)C[C@H](NC(=O)C(F)(F)F)C(=O)N[C@@H](C)C(=O)NCC(=O)NCC#N | 50 |  | IC50 [1]: 6900 µM |
| CC(C)C[C@H](NC(=O)OCc1ccccc1)C(=O)N[C@@H](C)C(=O)NCC(=O)NCC#N | 95 |  | IC50 [1]: 10 µM; Ki [3]: 16 µM |
| COC(CNC(=O)CNC(=O)[C@H](C)NC(=O)[C@H](CC(C)C)NC(=O)OCc1ccccc1)OC | 59 |  | IC50 [1]: 400 µM; Ki [3]: 380 µM |
| COC(CNC(=O)CNC(=O)[C@H](C)NC(=O)[C@H](CC(C)C)NC(=O)OC(C)(C)C)OC | 59 |  | IC50 [1]: 1800 µM |
| C[C@H](NC(=O)C(F)(F)F)C(=O)NCC(=O)NCC#N | 5 |  |  |
| N#CCNC(=O)CNC(=O)C(F)(F)F |  | 0 |  |
| Cl.N#CCN |  | 0 |  |
| CC(C)C[C@H](NC(=O)OC(C)(C)C)C(=O)N[C@@H](C)C(=O)NCC(=O)NCC(=O)OC(C)(C)C (Boc-LAGG-OtBu) | 40 |  |  |
| CC(C)C[C@H](NC(=O)OCc1ccccc1)C(=O)N[C@@H](C)C(=O)NCC(=O)NCC(N)=O (Cbz-LAGG-NH2) |  |  | Inhibition [5]: 0% |
| CNC(=O)CNC(=O)CNC(=O)[C@H](C)NC(=O)[C@H](CC(C)C)NC(=O)OCc1ccccc1 (Cbz-LAGG-NHMe) |  |  | Inhibition [5]: 0% |
| CC(C)C[C@H](NC(=O)OCc1ccccc1)C(=O)N[C@@H](C)C(=O)NCC(=O)NCC(=O)N(C)C (Cbz-LAGG-NMe2) |  | 0 |  |
| CCN(C)C(=O)CNC(=O)CNC(=O)[C@H](C)NC(=O)[C@H](CC(C)C)NC(=O)OCc1ccccc1 (Cbz-LAGG-NMeEt) |  | 0 |  |
| CCOC(=O)CNC(=O)CNC(=O)[C@H](C)NC(=O)[C@H](CC(C)C)NC(=O)OCc1ccccc1 (Cbz-LAGG-OEt) | 67 |  |  |
| CC(C)C[C@H](NC(=O)OCc1ccccc1)C(=O)N[C@@H](C)C(=O)NCC(=O)NCC(=O)O (Cbz-LAGG-OH) |  |  | Inhibition [6]: 0% |
| COC(=O)CNC(=O)CNC(=O)[C@H](C)NC(=O)[C@H](CC(C)C)NC(=O)OCc1ccccc1 (Cbz-LAGG-OMe) | 72 |  |  |
| CON(C)C(=O)CNC(=O)CNC(=O)[C@H](C)NC(=O)[C@H](CC(C)C)NC(=O)OCc1ccccc1 (Cbz-LAGG-{N(Me)OMe}) |  | 0 |  |
| CC(C)C[C@H](N)C(=O)N[C@@H](C)C(=O)NCC(=O)NCC(N)=O (H-LAGG-NH2) |  | 0 |  |
| CNC(=O)CNC(=O)CNC(=O)[C@H](C)NC(=O)[C@@H](N)CC(C)C (H-LAGG-NHMe) |  | 0 |  |
